# Assay results published in patent publication US9409905B2, “Antibacterial compounds and methods for use” (PTC THERAPEUTICS, INC., priority 2011, dated 2016).
# How the values were obtained:
# [1] = tested on: E. coli 25922; assay: Antibacterial activity, microbroth dilution MIC (Table 1); type: cell-based, Escherichia coli; conditions: Escherichia coli; microbroth dilution; control Gram-negative E. coli 25922 strain; read-out: MIC, 25922
# Procedure, shortened: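 MIC (μg/mL) is taken as the lowest concentration with no macroscopically visible growth. Strains tested by microbroth dilution: Gram-positive S. aureus 29213, control Gram-negative E. coli 25922, and super-sensitive E. coli BAS849.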
# [2] = tested on: Staphylococcus aureus (S. aureus) 29213; assay: as above; type: cell-based; conditions: microbroth dilution, Gram-positive S. aureus 29213, read-out: MIC, 29213
# Procedure, shortened: (§1)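 In a microbroth dilution test, the minimum inhibitory concentration was defined as the lowest compound level preventing growth seen by eye, and was given in μg/mL.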
# [3] = tested on: Escherichia coli (E. coli) BAS849; assay: as above; type: cell-based; conditions: microbroth dilution, super sensitive Gram-negative E. coli BAS849, read-out: MIC, BAS849
# Procedure, shortened: as §1
# [4] = tested on: E. coli LZ3111; assay: Antibacterial activity, MIC, quinolone resistant strain (Table 2); type: cell-based; conditions: Escherichia coli, LZ3111, read-out: MIC LZ3111
# Procedure, shortened: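 Strain carries mutations conferring high-level quinolone resistance; tested by microbroth dilution, MIC recorded in μg/mL as lowest concentration preventing visible growth.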
smiles,measurement,setting,value
"CCc1cc(C(=O)O)c(=O)[nH]c1-c1ccc2c(c1)cc(C(C)(C)N(C)C)n2C [Cpd 87, 6-(2-(2-(dimethylamino)propan-2-yl)-1-methyl-1H-indol-5-yl)-5-ethyl-2-oxo-1,2-dihydropyridine-3-carboxylic acid]",MIC,[1],3.5 to 12.5 µg/mL
same,MIC,[2],12.5 to 150 µg/mL
same,MIC,[3],< 1 µg/mL
same,MIC,[4],12.5 to 150 µg/mL
"CCc1c(-c2ccc3c(c2)cc(CNCc2ccc(C)cc2)n3C)[nH]c(=O)c(C(=O)O)c1O [Cpd 297, 5-ethyl-4-hydroxy-6-(1-methyl-2-((4-methylbenzylamino)methyl)-1H-indol-5-yl)-2-oxo-1,2-dihydropyridine-3-carboxylic acid]",MIC,[1],< 1 µg/mL
same,MIC,[2],1 to 3.5 µg/mL
same,MIC,[3],< 1 µg/mL
same,MIC,[4],12.5 to 150 µg/mL
"Cn1c(CN2CCCC2)cc2cc(-c3[nH]c(=O)c(C(=O)O)c(O)c3-c3ccc(F)cc3)ccc21 [Cpd 309, 5-(4-fluorophenyl)-4-hydroxy-6-(1-methyl-2-(pyrrolidin-1-ylmethyl)-1H-indol-5-yl)-2-oxo-1,2-dihydropyridine-3-carboxylic acid]",MIC,[1],3.5 to 12.5 µg/mL
same,MIC,[2],12.5 to 150 µg/mL
same,MIC,[3],< 1 µg/mL
same,MIC,[4],12.5 to 150 µg/mL
"CCc1c(-c2ccc3c(c2)cc(CN2C[C@@H](C)N(C)[C@@H](C)C2)n3C)[nH]c(=O)c(C(=O)O)c1O [Cpd 170, 5-ethyl-4-hydroxy-6-(1-methyl-2-(((3S,5R)-3,4,5-trimethylpiperazin-1-yl)methyl)-1H-indol-5-yl)-2-oxo-1,2-dihydropyridine-3-carboxylic acid]",MIC,[1],3.5 to 12.5 µg/mL
same,MIC,[2],12.5 to 150 µg/mL
same,MIC,[3],< 1 µg/mL
same,MIC,[4],12.5 to 150 µg/mL
"CCc1c(-c2ccc3nc(C)oc3c2)[nH]c(=O)c(C(=O)O)c1O [Cpd 12, 5-ethyl-4-hydroxy-6-(2-methylbenzo[d]oxazol-6-yl)-2-oxo-1,2-dihydropyridine-3-carboxylic acid]",MIC,[1],12.5 to 150 µg/mL
same,MIC,[2],12.5 to 150 µg/mL
same,MIC,[3],1 to 3.5 µg/mL
same,MIC,[4],12.5 to 150 µg/mL
"CCc1c(-c2ccc3c(c2)c(C#N)c(N(C)C)n3C)[nH]c(=O)c(C(=O)O)c1O [Cpd 361, 6-(3-cyano-2-(dimethylamino)-1-methyl-1H-indol-5-yl)-5-ethyl-4-hydroxy-2-oxo-1,2-dihydropyridine-3-carboxylic acid]",MIC,[1],12.5 to 150 µg/mL
same,MIC,[2],3.5 to 12.5 µg/mL
same,MIC,[3],1 to 3.5 µg/mL
same,MIC,[4],12.5 to 150 µg/mL
"CCc1c(-c2ccc3c(c2)cc(CN2CCC(c4ccccn4)C2)n3C)[nH]c(=O)c(C(=O)O)c1O (stereo not shown) [Cpd 267, 5-ethyl-4-hydroxy-6-(1-methyl-2-((3-(pyridin-2-yl)pyrrolidin-1-yl)methyl)-1H-indol-5-yl)-2-oxo-1,2-dihydropyridine-3-carboxylic acid]",MIC,[1],1 to 3.5 µg/mL
same,MIC,[2],3.5 to 12.5 µg/mL
same,MIC,[3],< 1 µg/mL
same,MIC,[4],12.5 to 150 µg/mL
"CCc1cc(C(=O)O)c(=O)[nH]c1-c1ccc2c(c1)c(CN(Cc1ccccc1)Cc1ccccc1)cn2C [Cpd 77, 6-(3-((dibenzylamino)methyl)-1-methyl-1H-indol-5-yl)-5-ethyl-2-oxo-1,2-dihydropyridine-3-carboxylic acid]",MIC,[1],12.5 to 150 µg/mL
same,MIC,[2],3.5 to 12.5 µg/mL
same,MIC,[3],3.5 to 12.5 µg/mL
same,MIC,[4],12.5 to 150 µg/mL
"CCc1c(-c2ccc3c(c2)cc(CN2C[C@H]4CCC[C@@H](N(C)Cc5ccccc5)[C@H]4C2)n3C)[nH]c(=O)c(C(=O)O)c1O [Cpd 280, 6-(2-(((3aR,4R,7aS)-4-(benzyl(methyl)amino)-1H-isoindol-2(3H,3aH,4H,5H,6H,7H,7aH)-yl)methyl)-1-methyl-1H-indol-5-yl)-5-ethyl-4-hydroxy-2-oxo-1,2-dihydropyridine-3-carboxylic acid]",MIC,[1],12.5 to 150 µg/mL
same,MIC,[2],1 to 3.5 µg/mL
same,MIC,[3],< 1 µg/mL
same,MIC,[4],12.5 to 150 µg/mL
"CCc1c(-c2ccc3c(c2)cc(CNCC2CCCCCC2)n3C)[nH]c(=O)c(C(=O)O)c1O [Cpd 301, 6-(2-((cycloheptylmethylamino)methyl)-1-methyl-1H-indol-5-yl)-5-ethyl-4-hydroxy-2-oxo-1,2-dihydropyridine-3-carboxylic acid]",MIC,[1],12.5 to 150 µg/mL
same,MIC,[2],3.5 to 12.5 µg/mL
same,MIC,[3],< 1 µg/mL
same,MIC,[4],12.5 to 150 µg/mL
